Data reported in the Kinase Knowledgebase extract (Sharma et al. 2016).

Target: MAPK14 (human) (UniProt Q16539)
Test: Inhibition of MAPK14 Kinase Activity

Chain of MAPK14 (human) (Q16539 whole entry, looked up): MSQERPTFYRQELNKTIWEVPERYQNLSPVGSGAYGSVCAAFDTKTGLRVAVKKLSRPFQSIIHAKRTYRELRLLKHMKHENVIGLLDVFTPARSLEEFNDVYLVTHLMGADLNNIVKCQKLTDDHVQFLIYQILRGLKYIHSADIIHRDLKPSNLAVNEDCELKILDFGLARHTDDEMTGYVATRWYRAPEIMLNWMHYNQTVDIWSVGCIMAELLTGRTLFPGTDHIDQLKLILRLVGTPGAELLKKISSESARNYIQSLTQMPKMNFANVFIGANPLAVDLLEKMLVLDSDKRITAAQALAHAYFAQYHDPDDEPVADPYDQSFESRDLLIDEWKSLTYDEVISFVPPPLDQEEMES

IC50, < 10 µM:
CSc1nc(-c2ccccc2)c2ccc(=O)n(-c3ccccc3)c2n1
CSCCCOc1nc(-c2ccc(F)cc2C)c2ccc(=O)n(-c3c(F)cccc3F)c2n1
Cc1cc(F)ccc1-c1nc(NCC(F)(F)F)nc2c1ccc(=O)n2-c1ccccc1C
Cc1cc(F)ccc1-c1nc(NCC(=O)NCCO)nc2c1ccc(=O)n2-c1c(F)cccc1F
Cc1cc(F)ccc1-c1nc(NC(CO)CO)nc2c1ccc(=O)n2CC1CC1
Cc1cc(F)ccc1-c1nc(NCCCS(C)(=O)=O)nc2c1ccc(=O)n2-c1c(F)cccc1F
Cc1cc(F)ccc1-c1nc(Nc2c[nH]c(=O)[nH]c2=O)nc2c1ccc(=O)n2-c1c(F)cccc1F
Cc1cc(F)ccc1-c1nc(NC(C)(CO)CO)nc2c1ccc(=O)n2-c1ccccc1F
CCOc1nc(-c2ccc(F)cc2C)c2ccc(=O)n(C3CCCCC3)c2n1
CCC(CC)n1c(=O)ccc2c(-c3ccccc3Cl)nc(NC(CO)CO)nc21
Cc1cc(F)ccc1-c1nc(NCCO)nc2c1ccc(=O)n2-c1ccccc1F
Cc1cc(F)ccc1-c1nc(S(C)(=O)=O)nc2c1ccc(=O)n2C1CCCCC1
Cc1cc(F)ccc1-c1nc(OCCNC(=O)OC(C)(C)C)nc2c1ccc(=O)n2-c1c(F)cccc1F
Cc1cc(CNc2nc(-c3ccc(F)cc3C)c3ccc(=O)n(-c4c(F)cccc4F)c3n2)on1
Cc1cc(F)ccc1-c1nc(NCCNC(=O)NC2CCCCC2)nc2c1ccc(=O)n2-c1c(F)cccc1F
Cc1cc(F)ccc1-c1nc(NC[C@@H](C)O)nc2c1ccc(=O)n2-c1ccccc1C
CCC(C)n1c(=O)ccc2c(-c3ccc(F)cc3C)nc(NC(CO)CO)nc21 (configuration not stated)
CSc1nc(-c2ccccc2F)c2ccc(=O)[nH]c2n1
NCCNc1nc(-c2ccccc2Cl)c2ccc(=O)n(-c3ccccc3Cl)c2n1
CSc1nc(-c2ccc(F)cc2C)c2ccc(=O)n(C3CCCCC3)c2n1
CCC(CC)n1c(=O)ccc2c(-c3ccccc3Cl)nc(NCCN(CC)CC)nc21
CSc1nc(-c2ccc(F)cc2C)c2c(n1)N(c1c(F)cccc1F)C(=O)CC2
CSc1nc(Cl)c(C=O)c(NC2CCCCC2)n1
CC(C)n1c(=O)ccc2c(-c3ccccc3F)nc(NS(C)(=O)=O)nc21
Cc1cc(F)ccc1-c1nc(NC2CCOCC2)nc2c1ccc(=O)n2-c1ccccc1F
Cc1cc(F)ccc1-c1nc(OCCCS(C)(=O)=O)nc2c1ccc(=O)n2-c1c(F)cccc1F
Cc1cc(F)ccc1-c1nc(OCCN)nc2c1ccc(=O)n2-c1c(F)cccc1F
CCNC(=O)CNc1nc(-c2ccc(F)cc2C)c2ccc(=O)n(-c3c(F)cccc3F)c2n1
O=c1ccc2c(-c3ccccc3F)nc(NC(CO)CO)nc2n1-c1c(F)cccc1F
Cc1cc(F)ccc1-c1nc(NCC(=O)N2CCNC(=O)C2)nc2c1ccc(=O)n2-c1c(F)cccc1F
Cc1cc(F)ccc1-c1nc(NCC(=O)N2CCOCC2)nc2c1ccc(=O)n2-c1c(F)cccc1F
CCOc1nc(-c2ccc(F)cc2C)c2ccc(=O)n(-c3c(F)cccc3F)c2n1
COc1nc(-c2ccccc2Cl)c2ccc(=O)n(-c3ccccc3Cl)c2n1
CS(=O)(=O)c1nc(-c2ccccc2Cl)c2ccc(=O)n(-c3ccccc3Cl)c2n1
Cc1cc(F)ccc1-c1nc(NCCNC(=O)CN)nc2c1ccc(=O)n2-c1c(F)cccc1F
CSc1nc(-c2ccc(F)cc2C)c2ccc(=O)n(-c3c(C)cccc3C)c2n1
Cc1cc(F)ccc1-c1nc(NCC(C)(C)O)nc2c1ccc(=O)n2-c1ccccc1C
Cc1cc(F)ccc1-c1nc(NC[C@H](C)O)nc2c1ccc(=O)n2-c1c(F)cccc1F
Cc1cc(F)ccc1-c1nc(NC(C)(CO)CO)nc2c1ccc(=O)n2-c1c(F)cccc1F
CSc1nc(-c2ccccc2F)c2ccc(=O)n(CC3CC3)c2n1
CS(=O)(=O)Nc1nc(-c2ccccc2)c2ccc(=O)n(-c3ccccc3)c2n1
Cc1cc(F)ccc1-c1nc(NC2CCCCC2)nc2c1ccc(=O)n2-c1ccccc1C
CCN(CC)CCNc1nc(-c2ccc(F)cc2C)c2ccc(=O)n(-c3c(F)cccc3F)c2n1
CCONc1nc(-c2ccc(F)cc2C)c2ccc(=O)n(-c3ccccc3F)c2n1
CCOC(=O)CNc1nc(-c2ccccc2Cl)c2ccc(=O)n(C(CC)CC)c2n1
CSc1nc(-c2ccc(F)cc2C)c2ccc(=O)n(CC3CC3)c2n1
Cc1cc(F)ccc1-c1nc(Nc2ccnc(=O)[nH]2)nc2c1ccc(=O)n2-c1c(F)cccc1F
Cc1cc(F)ccc1-c1nc(NCCc2c[nH]cn2)nc2c1ccc(=O)n2-c1c(F)cccc1F
Cc1cc(F)ccc1-c1nc(NC[C@H](O)c2ccccc2)nc2c1ccc(=O)n2-c1c(F)cccc1F
Cc1cc(F)ccc1-c1nc(NC(C)(C)CO)nc2c1ccc(=O)n2-c1ccccc1F
Cc1cc(F)ccc1-c1nc(NCCNC(=O)OC(C)(C)C)nc2c1ccc(=O)n2-c1c(F)cccc1F
Cc1cc(F)ccc1-c1nc(N[C@H]2CCCC[C@@H]2O)nc2c1ccc(=O)n2-c1c(F)cccc1F
CSc1nc(-c2ccccc2F)c2ccc(=O)n(C)c2n1
COc1nc(-c2ccccc2F)c2ccc(=O)n(-c3ccccc3Cl)c2n1
Cc1cc(F)ccc1-c1nc(NC(CO)CO)nc2c1ccc(=O)n2-c1ccccc1F
Cc1cc(F)ccc1-c1nc(NC2CCCCC2)nc2c1ccc(=O)n2-c1c(F)cccc1F
Cc1cc(F)ccc1-c1nc(NCC(C)(C)O)nc2c1ccc(=O)n2-c1c(F)cccc1F
O=c1ccc2c(-c3ccccc3F)nc(NC(CO)CO)nc2n1-c1ccccc1F
CCN(CC)CCNc1nc(-c2ccccc2F)c2ccc(=O)n(-c3ccccc3Cl)c2n1
COc1nc(-c2ccc(F)cc2C)c2ccc(=O)n(-c3c(F)cccc3F)c2n1
Cc1cc(F)ccc1-c1nc(NCCO)nc2c1ccc(=O)n2-c1c(F)cccc1F
O=c1ccc2c(-c3ccccc3Cl)nc(NCCO)nc2n1-c1ccccc1Cl
CS(=O)(=O)Nc1nc(-c2ccccc2F)c2ccc(=O)n(-c3c(F)cccc3F)c2n1
Cc1cc(F)ccc1-c1nc(N[C@H](C)CO)nc2c1ccc(=O)n2-c1c(F)cccc1F
Cc1cc(F)ccc1-c1nc(NCC(F)(F)F)nc2c1ccc(=O)n2-c1c(F)cccc1F
Cc1nnc(CNc2nc(-c3ccc(F)cc3C)c3ccc(=O)n(-c4c(F)cccc4F)c3n2)[nH]1
Cc1cc(F)ccc1-c1nc(NCCc2nnn[nH]2)nc2c1ccc(=O)n2-c1c(F)cccc1F
COc1nc(-c2ccccc2F)c2ccc(=O)n(-c3c(F)cccc3F)c2n1
CSc1nc(-c2ccc(F)cc2C)c2ccc(=O)n(-c3c(F)cccc3F)c2n1
Cc1cc(F)ccc1-c1nc(N(C)S(C)(=O)=O)nc2c1ccc(=O)n2C(C)C
Cc1cc(F)ccc1-c1nc(Nc2nc[nH]n2)nc2c1ccc(=O)n2-c1c(F)cccc1F
Cc1cc(F)ccc1-c1nc(NCCNC(=O)c2ccccc2)nc2c1ccc(=O)n2-c1c(F)cccc1F
Cc1cc(F)ccc1-c1nc(NC(CO)CO)nc2c1ccc(=O)n2C1CC1
CCNc1nc(-c2ccc(F)cc2C)c2ccc(=O)n(-c3ccccc3F)c2n1
Cc1cc(F)ccc1-c1nc(Nc2nnn[nH]2)nc2c1ccc(=O)n2-c1c(F)cccc1F
Cc1cc(F)ccc1-c1nc(NCC2CCCO2)nc2c1ccc(=O)n2-c1c(F)cccc1F (configuration not stated)
Cc1cc(F)ccc1-c1nc(OCCNS(C)(=O)=O)nc2c1ccc(=O)n2-c1c(F)cccc1F
Cc1cc(F)ccc1-c1nc(NC2CCOC2)nc2c1ccc(=O)n2-c1c(F)cccc1F (configuration not stated)
Cc1cc(F)ccc1-c1nc(NC2CCCCC2)nc2c1ccc(=O)n2-c1ccccc1F
CCC(CC)n1c(=O)ccc2c(-c3ccccc3Cl)nc(NCCO)nc21
Cc1cc(F)ccc1-c1nc(OCCN(C)S(C)(=O)=O)nc2c1ccc(=O)n2-c1c(F)cccc1F
CNC(=O)NCCNc1nc(-c2ccc(F)cc2C)c2ccc(=O)n(-c3c(F)cccc3F)c2n1
Cc1cc(F)ccc1-c1nc(N(C)S(C)(=O)=O)nc2c1ccc(=O)n2-c1c(F)cccc1F
CSc1nc(-c2ccccc2F)c2ccc(=O)n(C(C)C)c2n1
Cc1cc(F)ccc1-c1nc(NC2CCN(C)CC2)nc2c1ccc(=O)n2-c1c(F)cccc1F
Cc1cc(F)ccc1-c1nc(NC(CO)CO)nc2c1ccc(=O)n2-c1ccccc1C
CCC(=O)NCCNc1nc(-c2ccc(F)cc2C)c2ccc(=O)n(-c3c(F)cccc3F)c2n1
